How the values were obtained:
A549 cells = test: Apoptotic activity by MTT analysis, A549 cells; format: cell-based; conditions: Homo sapiens, A549, 12 h, 15 μM of the compound, mean±standard deviation, read-out: Apoptosis (%) A549 cells
Procedure: (§1) Lung cancer cells (A549), colorectal cancer cells (HCT116), HeLa cells, liver cancer cells (HepG2), T-cell leukemia cells (Jurkat), myeloid leukemia cells (K562), breast cancer cells (MCF-7 and MDA-MB-231) and myelocytic leukemia cells ([…]) were obtained from the American Type Culture Collection (ATCC), and cultured in 10% fetal bovine serum (FBS), 50 units/mL penicillin and 50 units/mL streptomycin-added RPMI 1640 (Invitrogen). The cells were maintained in a humidified 37° C., 5% CO2 atmosphere. The anticancer activity was detected by MTT analysis. Each type of cancer cells were plated in triplicate in a 96-well microtiter plate, and cultured at 37° C. for 24 hours. The cells were treated with each of the compounds prepared above at 37° C. for 12 hours. After the culturing of the cells, 10 μL of an MTT reagent ((3-[4,5-dimethyl-2-thiazolyl]-2,5-diphenyl-2H-tetrazoliumbromide) was added to each well, and cultured for 3.5 hours. The absorbance of each sample was detected using a UV microplate reader (SpectraMax 340PC 384, Molecular Devices) at 570 nm. The detection results were measured as a mean value. The effect of each compound on apoptosis is shown in Table 1.
(§2) The A549 and HeLa cells were treated with 15 μM of the compound for 12 hours. The apoptosis was detected using MTT (mean±standard deviation).

HeLa cells = test: Apoptotic activity by MTT analysis, HeLa cells; format: cell-based; conditions: Homo sapiens, HeLa, 12 h, 15 μM of the compound, mean±standard deviation, read-out: Apoptosis (%) HeLa cells
Procedure: as §1, §2

In the case of COc1ccc(-c2nc(-c3cc(C(F)(F)F)cc(C(F)(F)F)c3)n(Cc3ccc(C(=O)NCCOCCOCCOCCN)cc3)c2-c2ccc(OC)cc2)cc1 [Example 200, N-(2-(2-(2-(2-aminoethoxy)ethoxy)ethoxy)ethyl)-4-((2-(3,5-bis(trifluoromethyl)phenyl)-4,5-bis(4-methoxyphenyl)-1H-imidazole-1-yl)methyl)benzamide], the cytotoxicity at 15 µM (A549 cells) is reported as 85 ± 1.44% and the cytotoxicity at 15 µM (HeLa cells) is reported as 87 ± 0.78%.

From patent US20160297768A1, “NOVEL IMIDAZOLE DERIVATIVES AND THERAPEUTIC USE THEREOF” (INDUSTRY-ACA-DEMIC COORPERATION FOUNDATION, YONSEI …, priority 2013, published 2016)
